Laboratory results: patent publication US12454525B2, “IL4I1 inhibitors and methods of use” (Merck Sharp & Dohme LLC, priority 2020, dated 2025)

biological target: T1, recombinant IL4I1 (Homo sapiens, UniProt Q96RQ9); assay: IL4I1 Enzymatic Assay (Amplex Red/HRP coupled H2O2 detection); format: biochemical; conditions: 240 min; four-hour pre-incubation with compound; 1 nM IL4I1, 1 mM each Phe/Tyr/Trp; ten-point titration; fluorescence readout; read-out: Potency EC50 (nM) (240 min)
T1 construct: purchased R&D Systems 5684-AO-020
T1 sequence (Q96RQ9 22-567): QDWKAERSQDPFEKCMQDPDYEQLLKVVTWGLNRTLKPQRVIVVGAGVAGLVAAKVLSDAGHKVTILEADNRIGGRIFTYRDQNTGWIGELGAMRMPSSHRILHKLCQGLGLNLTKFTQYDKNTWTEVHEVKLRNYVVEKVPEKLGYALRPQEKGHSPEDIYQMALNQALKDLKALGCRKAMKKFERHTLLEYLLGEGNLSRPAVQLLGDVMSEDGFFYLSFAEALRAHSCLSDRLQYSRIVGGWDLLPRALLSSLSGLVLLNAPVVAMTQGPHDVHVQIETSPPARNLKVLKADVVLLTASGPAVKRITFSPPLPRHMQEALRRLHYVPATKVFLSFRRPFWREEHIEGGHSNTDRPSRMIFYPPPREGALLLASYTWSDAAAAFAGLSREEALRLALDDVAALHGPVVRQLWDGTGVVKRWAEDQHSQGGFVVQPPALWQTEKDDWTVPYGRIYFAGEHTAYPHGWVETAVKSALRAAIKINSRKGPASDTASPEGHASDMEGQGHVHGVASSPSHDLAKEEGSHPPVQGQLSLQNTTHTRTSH
Procedure: Interleukin 4 inducible protein 1 (IL4I1) is an L-amino oxidase that catalyzes the oxidation of aromatic residues (Phe, Trp and Tyr): L-amino acid+H2O+O2→2-oxo acid+NH3+H2O2. Equal molar of H2O2 and the corresponding alpha-ketoacid are produced when IL4I1 and substrate are added. In this assay, the hydrogen peroxide generated by IL4I1 is then detected through a coupled reaction with Amplex Red (10-acetyl-3,7-dihydroxyphenoxazine) and […] (HRP) to produce Resorufin product that could be detected in the form of fluorescence signals. The assessment of the inhibitory effect of small molecules (EC50) on IL4I1 is measured by the effectiveness of the compounds to inhibit the production of H2O2.
Using this assay, the potency (EC50) of each compound was determined from a ten-point (1:3 serial dilution) titration curve using the following outlined procedure. To each well of a black flat-bottom Greiner (Cat #781076) 384 well-plate, 25 nL of compound (0.1% DMSO in final assay volume of 25 μL) was dispensed, followed by the addition of 12.5 μL of 1x assay buffer (50 mM Hepes 7.0 and 0.005% Tween20 (Sigma, Cat #P8341; low peroxide grade)) containing 2 nM of recombinant IL4I1 (R&D Systems, Cat #5684-AO-020). Plates were placed in an ambient temperature humidified chamber for a four-hour pre-incubation with compound. Subsequently, each reaction was initiated by the addition of 12.5 μL 1x assay buffer containing 2 mM of each aromatic amino acids (Phe/Tyr/Trp), 0.1 mM Amplex Red and 2 U/mL of HRP. The final reaction in each well of 25 μL consists of 1 nM of IL411, 1 mM of each residues (Phe, Tyr and Trp), 0.05 mM Amplex Red and 1 U/mL of HRP. It should be noted that the concentrations of Amplex Red and HRP used here are in excess such that the conversion of H2O2 to Resorufin product occurs instantaneously and non-rate limiting. Reactions were allowed to proceed for 120 minutes followed by fluorescence readout on a Spectramax with the following set parameters: 544 nm excitation/590 nm emission, 570 nm cutoff (EnVision is an alternative reader). Dose-response curves were generated by plotting percent effect (% product conversion; Y-axis) vs. Log10 compound concentrations (X-axis). EC50 values were calculated using a non-linear regression, four-parameters sigmoidal dose-response model and are shown in Table 16.

Row | EC50 [nM] | SMILES
1 | 10 | O=c1[nH]c2ccccc2n1Cc1ccc(Cn2nncc2CO)cc1 (single isomer, unassigned) [Example 81, 1-(4-((5-(hydroxymethyl)-1H-1,2,3-triazol-1-yl)methyl)benzyl)-1,3-dihydro-2H-benzo[d]imidazol-2-one]
2 | 10 | O=C1CCCN1Cc1ccc(Cn2c(=O)[nH]c3ccc(F)cc32)cc1 (single isomer, unassigned) [Example 84, 6-fluoro-1-(4-((2-oxopyrrolidin-1-yl)methyl)benzyl)-1,3-dihydro-2H-benzo[d]imidazol-2-one]
3 | 389 | O=C1CCCN1Cc1ccc(Cn2c(=O)[nH]c3cc(F)ccc32)cc1 (single isomer, unassigned) [Example 85, 5-fluoro-1-(4-((2-oxopyrrolidin-1-yl)methyl)benzyl)-1,3-dihydro-2H-benzo[d]imidazol-2-one]
4 | 13 | O=C1CCCN1Cc1ccc(Cn2c(=O)[nH]c3ccccc32)cc1 [Example 1, 1-(4-((2-oxopyrrolidin-1-yl)methyl)benzyl)-1,3-dihydro-2H-benzo[d]imidazol-2-one]
5 | 13 | O=C1C=CCN1Cc1ccc(Cn2c(=O)[nH]c3ccccc32)cc1 [Example 2, 1-(4-((2-oxo-2,5-dihydro-1H-pyrrol-1-yl)methyl)benzyl)-1,3-dihydro-2H-benzo[d]imidazol-2-one]
6 | 53 | O=c1[nH]c2ccccc2n1Cc1ccc(Cc2nnco2)cc1 [Example 3, 1-(4-((1,3,4-oxadiazol-2-yl)methyl)benzyl)-1,3-dihydro-2H-benzo[d]imidazol-2-one]
7 | 11 | O=C1CCCN1Cc1ccc(Cn2c(=O)[nH]c3ccccc32)c(F)c1 [Example 8, 1-({2-fluoro-4-[(2-oxopyrrolidin-1-yl)methyl]phenyl}methyl)-1,3-dihydro-2H-benzimidazol-2-one]
8 | 16 | O=C1CCCN1Cc1ccc(Cn2c(=O)[nH]c3ccccc32)cc1F [Example 9, 1-({3-fluoro-4-[(2-oxopyrrolidin-1-yl)methyl]phenyl}methyl)-1,3-dihydro-2H-benzimidazol-2-one]

The next lines start with the compound.

Row | SMILES | EC50 [nM]
9 | CC(=O)NC1CCc2ccc(Cn3c(=O)[nH]c4ccccc43)cc21 (single isomer, unassigned) [Example 45, N-(6-((2-oxo-2,3-dihydro-1H-benzo[d]imidazol-1-yl)methyl)-2,3-dihydro-1H-inden-1-yl)acetamide] | 21
10 | CNC(=O)C1CCc2cc(Cn3c(=O)[nH]c4ccccc43)ccc21 (single isomer, unassigned) [Example 46, N-methyl-5-((2-oxo-2,3-dihydro-1H-benzo[d]imidazol-1-yl)methyl)-2,3-dihydro-1H-indene-1-carboxamide] | 9
11 | Cc1ccc(C2CC2Cn2c(=O)[nH]c3ccccc32)nc1 (single isomer, unassigned) [Example 111, 1-((2-(5-methylpyridin-2-yl)cyclopropyl)methyl)-1,3-dihydro-2H-benzo[d]imidazol-2-one] | 4
12 | O=c1[nH]c2ccccc2n1Cc1ccc(Cc2nnco2)c(Cl)c1 [Example 4, 1-(4-((1,3,4-oxadiazol-2-yl)methyl)-3-chlorobenzyl)-1,3-dihydro-2H-benzo[d]imidazol-2-one] | 6
13 | COc1cc(CNC(C)=O)ccc1Cn1c(=O)[nH]c2ccccc21 [Example 5, N-(3-methoxy-4-((2-oxo-2,3-dihydro-1H-benzo[d]imidazol-1-yl)methyl)benzyl)acetamide] | 15
14 | CS(=O)(=O)NCc1ccc(Cn2c(=O)[nH]c3ccccc32)s1 [Example 6, N-((5-((2-oxo-2,3-dihydro-1H-benzo[d]imidazol-1-yl)methyl)thiophen-2-yl)methyl)methanesulfonamide] | 6
15 | COc1cc(Cn2c(=O)[nH]c3ccccc32)ccc1CNC(C)=O [Example 7, N-({2-methoxy-4-[(2-oxo-2,3-dihydro-1H-benzimidazol-1-yl)methyl]phenyl}methyl)acetamide] | 8
